These results are taken from patent US20090005415A1, “1,2-Diarylimidazoles for Use as Cb1 Modulators” (priority 2005, published 2009).

Counter-ions that a name gives are not always drawn.

A word on the melting point: it is the temperature of the solid-liquid transition. `Cc1c(C(=O)NN2CCCCC2)nc(-c2ccc(Cl)cc2Cl)n1-c1ccc(OCc2ccccc2)cc1` (as salt: hydrochloride) [Example 1, 1-(4-Benzyloxy-phenyl)-2-(2,4-dichloro-phenyl)-5-methyl-1H-imidazole-4-carboxylic acid piperidin-1-ylamide]: the melting point is 195 to 198 °C.

The molecule `CCS(=O)(=O)Oc1ccc(-n2c(-c3ccc(Cl)cc3Cl)nc(C(=O)NN3CCCCC3)c2C)cc1` (as salt: hydrochloride) [Example 2, Ethanesulfonic acid 4-[2-(2,4-dichloro-phenyl)-5-methyl-4-(piperidin-1-ylcarbamoyl)-imidazol-1-yl]-phenyl ester] came in with a melting point of 94 to 101 °C.

In turn, `Cc1c(C(=O)NN2CCCCC2)nc(-c2ccc(Cl)cc2Cl)n1-c1ccc(OS(=O)(=O)CCCC(F)(F)F)cc1` (as salt: hydrochloride) [Example 3, 4,4,4-Trifluoro-butane-1-sulfonic acid 4-[2-(2,4-dichloro-phenyl)-5-methyl-4-(piperidin-1-ylcarbamoyl)-imidazol-1-yl]-phenyl ester] registered a melting point of 113 to 118 °C.

In the case of `Cc1c(C(=O)NN2CCCCC2)nc(-c2ccc(Cl)cc2Cl)n1-c1ccc(OS(=O)(=O)c2cccnc2)cc1` (as salt: hydrochloride) [Example 4, Pyridine-3-sulfonic acid 4-[2-(2,4-dichloro-phenyl)-5-methyl-4-(piperidin-1-ylcarbamoyl)-imidazol-1-yl]-phenyl ester], the melting point was 205 to 209 °C.

As for `Cc1c(C(=O)NN2CCCCC2)nc(-c2ccc(Cl)cc2Cl)n1-c1ccc(OS(=O)(=O)c2ccc(Cl)s2)cc1` (as salt: hydrochloride) [Example 5, 5-Chloro-thiophene-2-sulfonic acid 4-[2-(2,4-dichloro-phenyl)-5-methyl-4-(piperidin-1-ylcarbamoyl)-imidazol-1-yl]-phenyl ester], the melting point fell in the range of 112 to 118 °C.

`Cc1c(C(=O)NN2CCCCC2)nc(-c2ccc(Cl)cc2Cl)n1-c1ccc(OS(=O)(=O)CCC(C)(C)C)cc1` (as salt: hydrochloride) [Example 6, 3,3-Dimethyl-butane-1-sulfonic acid 4-[2-(2,4-dichloro-phenyl)-5-methyl-4-(piperidin-1-ylcarbamoyl)-imidazol-1-yl]-phenyl ester]: the melting point was 152 to 156 °C.

Turning to `Cc1c(C(=O)NN2CCCCC2)nc(-c2ccc(Cl)cc2Cl)n1-c1ccc(OS(=O)(=O)c2cccs2)cc1` (as salt: hydrochloride) [Example 7, Thiophene-2-sulfonic acid 4-[2-(2,4-dichloro-phenyl)-5-methyl-4-(piperidin-1-ylcarbamoyl)-imidazol-1-yl]phenyl ester], the melting point was in the range of 107 to 112 °C.

The molecule `Cc1c(C(=O)NN2CCCCC2)nc(-c2ccc(Cl)cc2Cl)n1-c1ccc(OS(=O)(=O)CCC(F)(F)F)cc1` (as salt: hydrochloride) [Example 8, 3,3,3-Trifluoro-propane-1-sulfonic acid 4-[2-(2,4-dichloro-phenyl)-5-methyl-4-(piperidin-1-ylcarbamoyl)-imidazol-1-yl]-phenyl ester] returned a melting point of 183 to 186 °C.

Regarding `CCCS(=O)(=O)Oc1ccc(-n2c(-c3ccc(Cl)cc3Cl)nc(C(=O)NN3CCCCC3)c2C)cc1` (as salt: hydrochloride) [Example 9, Propane-1-sulfonic acid 4-[2-(2,4-dichloro-phenyl)-5-methyl-4-(piperidin-1-ylcarbamoyl)-imidazol-1-yl]-phenyl ester], the melting point was 126 to 133 °C.
